What was measured:
[1] = molecular target: Dual specificity tyrosine-phosphorylation-regulated kinase 1A (Rattus norvegicus, UniProt Q63470); assay: Inhibition of GST-fused rat recombinant DYRK1A expressed in Escherichia coli assessed as [gamma-33P]ATP incorporation after 10 mins by scintillation counting
[2] = molecular target: Glycogen synthase kinase-3 (Sus scrofa, UniProt B2LUN4+I6LNT8); assay: Inhibition of porcine brain GSK3alpha/beta assessed as [gamma-33P]ATP incorporation after 30 mins by scintillation counting
[3] = Inhibition of Marthasterias glacialis CDK1/cyclin-B assessed as [gamma-33P]ATP incorporation after 10 mins by scintillation counting
[4] = Inhibition of porcine brain CK1 assessed as [gamma-33P]ATP incorporation after 10 mins by scintillation counting; design: species or system Sus scrofa
[5] = molecular target: Cyclin-dependent kinase 5/CDK5 activator 1 (Homo sapiens, UniProt Q00535); assay: Inhibition of GST-fused CDK5/p25 expressed in Escherichia coli assessed as [gamma-33P]ATP incorporation after 10 mins by scintillation counting
Cyclin-dependent kinase 5/CDK5 activator 1, sequence (Q00535 whole entry, the tested form may be a part): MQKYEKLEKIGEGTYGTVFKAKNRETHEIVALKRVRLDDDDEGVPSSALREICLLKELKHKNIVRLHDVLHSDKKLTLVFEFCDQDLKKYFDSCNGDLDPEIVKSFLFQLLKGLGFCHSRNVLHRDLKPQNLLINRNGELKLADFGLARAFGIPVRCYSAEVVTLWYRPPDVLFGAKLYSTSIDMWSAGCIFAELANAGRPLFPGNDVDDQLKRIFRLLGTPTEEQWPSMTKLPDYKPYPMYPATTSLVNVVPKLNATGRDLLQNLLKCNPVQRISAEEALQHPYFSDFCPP
Cyclin-dependent kinase 5/CDK5 activator 1, sequence (Q15078 whole entry, further chain, the tested form may be a part): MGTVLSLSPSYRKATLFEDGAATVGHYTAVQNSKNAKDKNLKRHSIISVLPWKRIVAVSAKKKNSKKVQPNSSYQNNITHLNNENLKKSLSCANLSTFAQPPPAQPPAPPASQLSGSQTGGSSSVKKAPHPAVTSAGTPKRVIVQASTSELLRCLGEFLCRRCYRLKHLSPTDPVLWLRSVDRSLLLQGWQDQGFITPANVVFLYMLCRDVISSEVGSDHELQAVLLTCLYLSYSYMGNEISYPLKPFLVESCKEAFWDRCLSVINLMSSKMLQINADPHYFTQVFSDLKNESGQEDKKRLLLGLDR

[6] = tested on: PC-3; assay: Antiproliferative activity against human PC3 cells after 72 hrs by imaging analysis; type: functional, cell-based; conditions: PC-3, 72 h
[7] = tested on: Huh-7; assay: Antiproliferative activity against human HuH7 cells after 72 hrs by imaging analysis; type: functional, cell-based; conditions: Huh-7, 72 h
[8] = Antiproliferative activity against human fibroblast after 72 hrs by imaging analysis; type: cell-based
[9] = tested on: HCT-116; assay: Antiproliferative activity against human HCT116 cells after 72 hrs by imaging analysis; type: functional, cell-based; conditions: HCT-116, 72 h
[10] = Antiproliferative activity against human NCI/ADR cells after 72 hrs by imaging analysis; type: functional, cell-based; conditions: NCI/ADR-RES
[11] = tested on: Caco-2; assay: Antiproliferative activity against human Caco-2 cells after 72 hrs by imaging analysis; type: functional, cell-based; conditions: Caco-2, 72 h

Structure (SMILES)	IC50 [1]	IC50 [2]	IC50 [3]	IC50 [4]	IC50 [5]	IC50 [6]	IC50 [7]	IC50 [9]	IC50 [11]	IC50 [8]	IC50 [10]
O=C1C(c2c(O)[nH]c3ccc([N+](=O)[O-])cc23)=Nc2ccccc21	> 10 µM	19 µM	40000 nM	> 10 µM	25000 nM	–	–	–	–	–	–
CC[C@H](CO)Nc1nc(NCc2ccccc2)c2ncn(C(C)C)c2n1 [SELICICLIB]	–	–	–	–	–	8 µM	5 µM	5 µM	–	> 25 µM	6 µM
O=C1Nc2c(Br)cc([N+](=O)[O-])cc2/C1=C1/Nc2ccc(Br)cc2/C1=N\O	> 10 µM	> 10 µM	> 10000 nM	> 10 µM	> 10000 nM	–	–	–	–	–	–
O=C1Nc2cc([N+](=O)[O-])ccc2/C1=C1/Nc2ccc(Br)cc2C1=O	–	> 10 µM	> 10000 nM	> 10 µM	> 10000 nM	–	–	–	–	–	–
O=C1Nc2c(Br)cc([N+](=O)[O-])cc2/C1=C1/Nc2ccccc2C1=O	> 10 µM	> 10 µM	> 10000 nM	> 10 µM	> 10000 nM	–	–	–	–	–	–
O=C1Nc2c(Br)cc([N+](=O)[O-])cc2/C1=C1/Nc2ccccc2/C1=N\O	> 10 µM	> 10 µM	> 10000 nM	> 10 µM	> 10000 nM	–	–	–	–	–	–
Nc1ccc2c(c1)/C(=C1\C(=O)Nc3ccccc31)C(=O)N2 [(3'Z)-5-AMINOISOINDIGO]	–	–	–	–	–	25 µM	> 25 µM	> 25 µM	> 25 µM	> 25 µM	25 µM
Nc1ccc2c(c1)NC(=O)/C2=C1\Nc2ccccc2C1=O	–	0.36 µM	30000 nM	16 µM	4000 nM	25 µM	> 25 µM	> 25 µM	5 µM	> 25 µM	25 µM
O=C1Nc2ccc([N+](=O)[O-])cc2/C1=C1/Nc2ccc(Br)cc2C1=O	> 10 µM	> 10 µM	> 10000 nM	> 10 µM	> 10000 nM	–	–	–	–	–	–
Nc1ccc2c(c1)/C(=C1/Nc3ccccc3C1=O)C(=O)N2	2.5 µM	0.08 µM	1500 nM	0.65 µM	590 nM	5 µM	6 µM	15 µM	2 µM	> 25 µM	20 µM
O=C1Nc2cc([N+](=O)[O-])ccc2/C1=C1/Nc2ccc(Br)cc2/C1=N\O	–	0.7 µM	7000 nM	18 µM	300 nM	–	–	–	–	–	–
O=C1Nc2ccccc2/C1=C1\C(=O)Nc2ccc([N+](=O)[O-])cc21	–	–	–	–	–	> 25 µM	> 25 µM	> 25 µM	> 25 µM	> 25 µM	25 µM
CC(=O)O[C@H]1C(=O)[C@@]2(C)[C@H]([C@H](OC(=O)c3ccccc3)[C@]3(O)C[C@H](OC(=O)[C@H](O)[C@@H](NC(=O)c4ccccc4)c4ccccc4)C(C)=C1C3(C)C)[C@]1(OC(C)=O)CO[C@@H]1C[C@@H]2O [PACLITAXEL]	–	–	–	–	–	< 0.0008 µM	0.008 µM	< 0.0008 µM	0.02 µM	0.03 µM	0.004 µM
O=C1Nc2cc([N+](=O)[O-])ccc2/C1=C1/Nc2ccccc2C1=O	–	60 µM	> 10000 nM	> 10 µM	> 10000 nM	15 µM	> 25 µM	5 µM	3 µM	> 25 µM	2 µM
O=C1Nc2c(Br)cc([N+](=O)[O-])cc2/C1=C1/Nc2ccc(Br)cc2C1=O	> 10 µM	> 10 µM	> 10000 nM	> 10 µM	> 10000 nM	–	–	–	–	–	–

Continued, in another order:

IC50 [1]	IC50 [2]	IC50 [3]	IC50 [4]	IC50 [5]	IC50 [6]	IC50 [7]	IC50 [9]	IC50 [11]	Structure (SMILES)	IC50 [8]	IC50 [10]
1.3 µM	0.0021 µM	19 nM	> 10 µM	6 nM	–	–	–	–	O=Nc1c(-c2c(O)[nH]c3ccc([N+](=O)[O-])cc23)[nH]c2ccccc12	–	–
4.2 µM	0.36 µM	100 nM	0.13 µM	150 nM	–	–	–	–	Nc1ccc2c(c1)/C(=C1/Nc3ccccc3/C1=N\O)C(=O)N2	–	–
> 10 µM	0.44 µM	600 nM	2.7 µM	550 nM	–	–	–	–	Nc1ccc2c(c1)/C(=C1/Nc3ccc(Br)cc3C1=O)C(=O)N2	–	–
> 10 µM	0.055 µM	160 nM	> 10 µM	50 nM	–	–	–	–	O=C1Nc2ccc([N+](=O)[O-])cc2/C1=C1/Nc2ccc(Br)cc2/C1=N/O	–	–
2.5 µM	0.0075 µM	50 nM	8 µM	18 nM	2 µM	2 µM	2 µM	5 µM	CC(=O)Nc1ccc2c(c1)/C(=C1/Nc3ccccc3C1=O)C(=O)N2	> 25 µM	10 µM
–	0.18 µM	1000 nM	0.5 µM	200 nM	–	–	–	–	Nc1ccc2c(c1)NC(=O)/C2=C1\Nc2ccccc2\C1=N/O	–	–
> 10 µM	6.6 µM	410 nM	> 10 µM	1000 nM	–	–	–	–	Nc1ccc2c(c1)/C(=C1/Nc3ccc(Br)cc3/C1=N\O)C(=O)N2	–	–
7.3 µM	0.073 µM	55 nM	> 10 µM	110 nM	–	–	–	–	CC(=O)Nc1ccc2c(c1)/C(=C1/Nc3ccc(Br)cc3C1=O)C(=O)N2	–	–
15 µM	0.35 µM	88 nM	0.4 µM	160 nM	–	–	–	–	CC(=O)Nc1ccc2c(c1)/C(=C1/Nc3ccccc3/C1=N\O)C(=O)N2	–	–
–	0.04 µM	180 nM	0.6 µM	120 nM	–	–	–	–	O=C1Nc2cc([N+](=O)[O-])ccc2/C1=C1/Nc2ccccc2/C1=N\O	–	–
> 10 µM	40 µM	1400 nM	> 10 µM	3300 nM	–	–	–	–	CC(=O)Nc1ccc2c(c1)/C(=C1/Nc3ccc(Br)cc3/C1=N\O)C(=O)N2	–	–

From ChEMBL document CHEMBL1152528, “Synthesis and kinase inhibitory activity of novel substituted indigoids” (Bioorg Med Chem, 2009)
